Data reported in patent US20220396819A1, “METHOD FOR PRODUCING PEPTIDE HAVING PHYSIOLOGICAL ACTIVITY, AND PEPTIDE COMPRISING SHORT LINKER” (priority 2019, published 2022).
Read-outs that look alike come from different tables or passages of the source. Positions of bridges follow the written chain, without caps; N, C: chain ends. No end group written: not given here.

Biological target: T1, EpoR (Homo sapiens, UniProt P19235)
T1 construct: host or cells: cells included in the PathHunter eXpress EpoR-JAK2 Functional Assay Kit
T1 sequence (P19235 25-508): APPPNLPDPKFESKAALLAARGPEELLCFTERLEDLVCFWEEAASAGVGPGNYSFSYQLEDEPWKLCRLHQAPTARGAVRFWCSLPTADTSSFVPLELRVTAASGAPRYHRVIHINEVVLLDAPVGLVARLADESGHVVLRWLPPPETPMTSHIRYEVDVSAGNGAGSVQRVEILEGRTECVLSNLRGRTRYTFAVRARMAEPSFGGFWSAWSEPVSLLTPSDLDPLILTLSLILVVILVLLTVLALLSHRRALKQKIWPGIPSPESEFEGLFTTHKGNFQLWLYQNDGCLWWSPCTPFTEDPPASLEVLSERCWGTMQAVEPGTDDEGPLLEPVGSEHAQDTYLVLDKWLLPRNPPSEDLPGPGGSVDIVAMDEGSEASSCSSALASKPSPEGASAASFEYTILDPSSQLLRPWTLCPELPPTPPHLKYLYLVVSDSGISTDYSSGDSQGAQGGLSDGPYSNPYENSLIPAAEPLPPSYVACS
Experiment: EpoR activation ability, PathHunter eXpress EpoR-JAK2 Functional Assay Kit
Format: cell-based
Conditions: for maximum activation ability compared with rhEPO: Example 22, FIG. 35; for EpoR activation, concentration dependence: culture supernatant, FIGS. 35, 55 to 57, 61; for EpoR activation, relative activity among linker lengths: Example 38, cell-free translation solution, FIG. 70
Experimental: The EpoR activation ability of the EPO-PAS dimer peptide was evaluated using PathHunter (registered trademark) eXpress EpoR-JAK2 Functional Assay Kit (DiscoverX).
(§1) Cells for EPO activity evaluation included in PathHunter (registered trademark) eXpress EpoR-JAK2 Functional Assay Kit were seeded on a 96-well plate and cultured for 24 hours at 37° C. under 5% CO2. […] As a negative control, the culture supernatant (FIG. 32, lane 18) obtained by culturing as described in Example 20 except for using a vector containing no gene for expressing the EPO-PAS dimer peptide, diluted at the same ratio as the culture supernatant containing AET-EPO-PAS8 or AET-EPO-PAS22, was added. The prepared Substrate Reagent was added to the cells stimulated at room temperature for 3 hours, and the cells were incubated for 60 minutes. The chemiluminescence intensity was quantified with a Nivo plate reader (Perkin Elmer).
The EpoR activation ability of the EPO-PAS dimer peptide linker variant was evaluated using PathHunter (registered trademark) eXpress EpoR-JAK2 Functional Assay Kit (DiscoverX).
as §1, with “48,” for “32,”, “26)” for “18)”, “30” for “20”
The EpoR activation ability of the stabilized EPO-PAS dimer peptide was evaluated using PathHunter (registered trademark) eXpress EpoR-JAK2 Functional Assay Kit (DiscoverX).
Cells for EPO activity evaluation included in PathHunter (registered trademark) eXpress EpoR-JAK2 Functional Assay Kit were seeded on a 96-well plate and cultured for 24 hours at 37° C. under 5% CO2. To the cells, a culture supernatant containing 14.2 μg/L to 220 pg/L AET-EPO-PAS22, AET-EPO-PAS22-PAS200, or AET-EPO-PAS22-PAS600 (cultured as described in Example 20 or 33) was added. As a negative control, the culture supernatant (FIG. 58, lane 20) obtained by culturing as described in Example 33 except for using a vector containing no gene for expressing the EPO-PAS dimer peptide, diluted at the same ratio as the culture supernatant containing AET-EPO-PAS22, AET-EPO-PAS22-PAS200, or AET-EPO-PAS22-PAS600, was added. The prepared Substrate Reagent was added to the cells stimulated at room temperature for 3 hours, and the cells were incubated for 60 minutes. The chemiluminescence intensity was quantified with a Nivo plate reader (Perkin Elmer).
Cells for EPO activity evaluation included in PathHunter (registered trademark) eXpress EpoR-JAK2 Functional Assay Kit were seeded on a 96-well plate and cultured for 24 hours at 37° C. under 5% CO2. To the cells, a cell-free translation solution with translated AET-EPO-PAS8, AET-EPO-PAS49-b, or AET-EPO-PAS100-b diluted to a predetermined concentration was added. As a negative control, a cell-free translation solution with untranslated peptide, diluted at the same ratio as the cell-free translation solution with translated AET-EPO-PAS8, AET-EPO-PAS49, or AET-EPO-PAS100, was added. The prepared Substrate Reagent was added to the cells stimulated at room temperature for 3 hours, and the cells were incubated for 60 minutes. The chemiluminescence intensity was quantified with a Nivo plate reader (Perkin Elmer).

[1] = Example 22, Table 4, dimers as culture supernatant, read-out: EC50 (g/L) (converted)
[2] = Example 35, Table 7, AET-EPO-PAS22 value is that of Example 22

Molecule: AETGGLYACHMGPMTWVCQPLRGAAPAAPAPAAPAAPAPAAPAAPAPAAPAAPAPAAPAAPAPAAPAAPAPAGGLYACHMGPMTWVCQPLRG (disulfide 9-18, 78-87) [AET-EPO-PAS49]
- EC50 (read-out: EC50 (g/L) (converted)): 0.501 nM

Molecule: AETGGLYACHMGPMTWVCQPLRGAAPAAPAPAAPAAPAPAAPAAPGGLYACHMGPMTWVCQPLRG (disulfide 9-18, 51-60) [AET-EPO-PAS22]
- maximum activation ability compared with rhEPO: almost the same as that of rhEPO
- EC50 [1]: 0.0531 nM
- EpoR activation, concentration dependence: activated EpoR in a concentration-dependent manner

Molecule: AETGGLYACHMGPMTWVCQPLRGAAPAAPAPGGLYACHMGPMTWVCQPLRG (disulfide 9-18, 37-46) [AET-EPO-PAS8]
- maximum activation ability compared with rhEPO: almost the same as that of rhEPO
- EC50 [1]: 0.036 nM
- EpoR activation, concentration dependence: activated EpoR in a concentration-dependent manner

Molecule: AETGGLYACHMGPMTWVCQPLRGGGGGSGGGGGLYACHMGPMTWVCQPLRG (disulfide 9-18, 37-46) [AET-EPO-GS8]
- EC50: 0.103 nM

Molecule: AETGGLYACHMGPMTWVCQPLRGGGGGSGGGGSGGGGSGGGGSGGGGLYACHMGPMTWVCQPLRG (disulfide 9-18, 51-60) [AET-EPO-GS22]
- EC50: 0.216 nM

Molecule: MAETGGLYACHMGPMTWVCQPLRGAAPAAPAPGGLYACHMGPMTWVCQPLRG (disulfide 10-19, 38-47) [MAET-EPO-PAS8]
- EpoR activation, relative activity among linker lengths: higher activity than MAET-EPO-PAS100-b

B1: AET-EPO-PAS22-PAS200: stabilized EPO-PAS dimer peptide, PAS200 bound to the C-terminus of AET-EPO-PAS22, SEQ ID NO: 144 (protein)
chain: AETGGLYACHMGPMTWVCQPLRGAAPAAPAPAAPAAPAPAAPAAPGGLYACHMGPMTWVCQPLRGAAPAAPAPAAPAAPAPAAPAAPAPAAPAAPAPAAPAAPAPAAPAAPAPAAPAAPAPAAPAAPAPAAPAAPAPAAPAAPAPAAPAAPAPAAPAAPAPAAPAAPAPAAPAAPAPAAPAAPAPAAPAAPAPAAPAAPAPAAPAAPAPAAPAAPAPAAPAAPAPAAPAAPAPAAPAAPAPAAPAAPAPAAPAAPAPAAPAAPAP
- EC50 [2]: 0.85 ng/mL

B2: AET-EPO-PAS22-PAS600: stabilized EPO-PAS dimer peptide, PAS600 bound to the C-terminus of AET-EPO-PAS22, SEQ ID NO: 145 (protein)
chain: AETGGLYACHMGPMTWVCQPLRGAAPAAPAPAAPAAPAPAAPAAPGGLYACHMGPMTWVCQPLRGAAPAAPAPAAPAAPAPAAPAAPAPAAPAAPAPAAPAAPAPAAPAAPAPAAPAAPAPAAPAAPAPAAPAAPAPAAPAAPAPAAPAAPAPAAPAAPAPAAPAAPAPAAPAAPAPAAPAAPAPAAPAAPAPAAPAAPAPAAPAAPAPAAPAAPAPAAPAAPAPAAPAAPAPAAPAAPAPAAPAAPAPAAPAAPAPAAPAAPAPAAPAAPAPAAPAAPAPAAPAAPAPAAPAAPAPAAPAAPAPAAPAAPAPAAPAAPAPAAPAAPAPAAPAAPAPAAPAAPAPAAPAAPAPAAPAAPAPAAPAAPAPAAPAAPAPAAPAAPAPAAPAAPAPAAPAAPAPAAPAAPAPAAPAAPAPAAPAAPAPAAPAAPAPAAPAAPAPAAPAAPAPAAPAAPAPAAPAAPAPAAPAAPAPAAPAAPAPAAPAAPAPAAPAAPAPAAPAAPAPAAPAAPAPAAPAAPAPAAPAAPAPAAPAAPAPAAPAAPAPAAPAAPAPAAPAAPAPAAPAAPAPAAPAAPAPAAPAAPAPAAPAAPAPAAPAAPAPAAPAAPAPAAPAAPAPAAPAAPAPAAPAAPAPAAPAAPAPAAPAAPAPAAPAAPAPAAPAAPAP
- EC50 [2]: 0.32 ng/mL

B3: MAETGGLYACHMGPMTWVCQPLRGSAPSPSSAPASASAPASPASASASASPASSPASASSASPAASSASPASSGGLYACHMGPMTWVCQPLRG (peptide)
chain: MAETGGLYACHMGPMTWVCQPLRGSAPSPSSAPASASAPASPASASASASPASSPASASSASPAASSASPASSGGLYACHMGPMTWVCQPLRG
modifications: MAET-EPO-PAS49-b; DISULFID (10)..(19) Disulfid bridge between Cys-10 and Cys-19; DISULFID (79)..(88) Disulfid bridge between Cys-79 and Cys-88
- EpoR activation, relative activity among linker lengths: higher activity than MAET-EPO-PAS100-b

B4: AET-EPO-PAS100: EPO-PAS dimer peptide linker variant, PAS linker of 100 amino acids, SEQ ID NO: 128 (protein)
chain: AETGGLYACHMGPMTWVCQPLRGAAPAAPAPAAPAAPAPAAPAAPAPAAPAAPAPAAPAAPAPAAPAAPAPAAPAAPAPAAPAAPAPAAPAAPAPAAPAAPAPAAPAAPAPAAPAAPAPAAPAGGLYACHMGPMTWVCQPLRG
- EC50 (Example 32, Table 6, rhEPO, AET-EPO-PAS8, AET-EPO-PAS22 values are those in Example 22): 6.6 ng/mL
